Test system: 317291-083-R-J1-PDC complex spheroid growth
Test: Anticancer human tumor 317291-083-R-J1-PDC patient-derived soft tissue sarcoma cell line growth inhibition [Asc]
Conditions: for IC50: curve of first compound; for viability, T/C: stronger effect = lower value
Method in brief: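 Complex spheroids combining tumor cells with HUVEC endothelial cells and human MSCs, at 37 degrees C, 5% CO2; agents tested alone or combined, half-log dilutions from at or near clinical Cmax, or 10 microM if Cmax unknown.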
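Further: compound exposure lasted seven days after spheroids formed for three days.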
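Wherever viability, T/C is given: 100% = DMSO vehicle control wells.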

SMILES: Cn1ncnc1[C@H]1c2n[nH]c(=O)c3cc(F)cc(c23)N[C@@H]1c1ccc(F)cc1 + CCN1C(C(=O)NC23CCC(C(=O)O)(CC2)CC3)C(c2cccc(Cl)c2F)C2(C(=O)Nc3cc(Cl)ccc32)C12CCCCC2
- IC50 (second compound 0.00949 µM): > 100 nM
- IC50 (second compound 0.03 µM): > 100 nM
- IC50 (second compound 0.0949 µM): > 100 nM
- IC50 (second compound 0.3 µM): > 100 nM
- IC50 (second compound 0.949 µM): > 100 nM
- IC50 (second compound 3 µM): > 100 nM
- viability, T/C (second compound 0.00949 µM, first compound 0.000316 µM): 108%
- viability, T/C (second compound 0.00949 µM, first compound 0.001 µM): 88.4%
- viability, T/C (second compound 0.00949 µM, first compound 0.00316 µM): 102%
- viability, T/C (second compound 0.00949 µM, first compound 0.01 µM): 100%
- viability, T/C (second compound 0.00949 µM, first compound 0.0316 µM): 81.9%
- viability, T/C (second compound 0.00949 µM, first compound 0.1 µM): 66.9%
- viability, T/C (second compound 0.03 µM, first compound 0.000316 µM): 99.6%
- viability, T/C (second compound 0.03 µM, first compound 0.001 µM): 107%
- viability, T/C (second compound 0.03 µM, first compound 0.00316 µM): 105%
- viability, T/C (second compound 0.03 µM, first compound 0.01 µM): 81.3%
- viability, T/C (second compound 0.03 µM, first compound 0.0316 µM): 76.1%
- viability, T/C (second compound 0.03 µM, first compound 0.1 µM): 87.3%
- viability, T/C (second compound 0.0949 µM, first compound 0.000316 µM): 95.3%
- viability, T/C (second compound 0.0949 µM, first compound 0.001 µM): 96%
- viability, T/C (second compound 0.0949 µM, first compound 0.00316 µM): 103%
- viability, T/C (second compound 0.0949 µM, first compound 0.01 µM): 86.3%
- viability, T/C (second compound 0.0949 µM, first compound 0.0316 µM): 77.6%
- viability, T/C (second compound 0.0949 µM, first compound 0.1 µM): 70.4%
- viability, T/C (second compound 0.3 µM, first compound 0.000316 µM): 106%
- viability, T/C (second compound 0.3 µM, first compound 0.001 µM): 101%
- viability, T/C (second compound 0.3 µM, first compound 0.00316 µM): 107%
- viability, T/C (second compound 0.3 µM, first compound 0.01 µM): 89.5%
- viability, T/C (second compound 0.3 µM, first compound 0.0316 µM): 73.9%
- viability, T/C (second compound 0.3 µM, first compound 0.1 µM): 64.6%
- viability, T/C (second compound 0.949 µM, first compound 0.000316 µM): 95.4%
- viability, T/C (second compound 0.949 µM, first compound 0.001 µM): 89.3%
- viability, T/C (second compound 0.949 µM, first compound 0.00316 µM): 103%
- viability, T/C (second compound 0.949 µM, first compound 0.01 µM): 93.6%
- viability, T/C (second compound 0.949 µM, first compound 0.0316 µM): 75.8%
- viability, T/C (second compound 0.949 µM, first compound 0.1 µM): 72.1%
- viability, T/C (second compound 3 µM, first compound 0.000316 µM): 82%
- viability, T/C (second compound 3 µM, first compound 0.001 µM): 69%
- viability, T/C (second compound 3 µM, first compound 0.00316 µM): 77.4%
- viability, T/C (second compound 3 µM, first compound 0.01 µM): 79.7%
- viability, T/C (second compound 3 µM, first compound 0.0316 µM): 65.1%
- viability, T/C (second compound 3 µM, first compound 0.1 µM): 62.7%

From PubChem BioAssay AID1963427 (Molecular Pharmacology Branch, DTP, NCI, 2024)
